Reference: ChEMBL document CHEMBL1201862, “PubChem BioAssay data set” (2004)
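Test compounds were applied to cells in 96-well plates for 48 hours at 5 doses. Here, GI50 denotes the concentration required for 50% inhibition of growth.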 The source made the active and inactive calls. Cut-off read from the data, not from the text of the source: active = GI50 up to about 1.1 µM and inactive = higher.

Experiments:
Assay in all cases: inhibition of tumour cell growth, NCI panel, 48 h
[1] = system: OVCAR-4
[2] = system: SW-620
[3] = system: NCI/ADR-RES
[4] = system: MDA-N
[5] = system: HCT-15
[6] = system: HOP-92
[7] = system: OVCAR-5
[8] = system: OVCAR-8
[9] = system: ACHN
[10] = system: SK-OV-3
[11] = system: UACC-62
[12] = system: MOLT-4
[13] = system: HCT-116
[14] = system: K562
[15] = system: SF-539
[16] = system: NCI-H226
[17] = system: RXF 393
[18] = system: SK-MEL-5
[19] = system: NCI-H522

Row | SMILES | GI50 [1] | GI50 [2] | GI50 [3] | GI50 [4] | GI50 [5] [µM] | GI50 [6] | GI50 [7] | GI50 [8] | GI50 [9] | GI50 [10] | GI50 [11] | GI50 [12] | GI50 [13] | GI50 [14] | GI50 [15] | GI50 [16] | GI50 [17] | GI50 [18] | GI50 [19]
1 | Nc1ccc(-c2nc3ccccc3s2)cc1C#Cc1ccccc1 | 20.6 µM (inactive) | 17.8 µM (inactive) | 21.4 µM (inactive) | 17.9 µM (inactive) | 17.9 | 18.8 µM (inactive) | 27.2 µM (inactive) | 19.8 µM (inactive) | 18.8 µM (inactive) | 24.3 µM (inactive) | 17.9 µM (inactive) | 32.5 µM (inactive) | 14.4 µM (inactive) | 31 µM (inactive) | 18.2 µM (inactive) | 20.1 µM (inactive) | 17.3 µM (inactive) | 17 µM (inactive) | 18.9 µM (inactive)
2 | N#C/C(C(=O)Nc1ccccc1)=C(/N)N1CCCC1 | > 100 µM (inactive) | > 100 µM (inactive) | > 100 µM (inactive) | > 100 µM (inactive) | > 100 | > 100 µM (inactive) | > 100 µM (inactive) | > 100 µM (inactive) | > 100 µM (inactive) | > 100 µM (inactive) | > 100 µM (inactive) | > 100 µM (inactive) | > 100 µM (inactive) | > 100 µM (inactive) | > 100 µM (inactive) | > 100 µM (inactive) | > 100 µM (inactive) | > 100 µM (inactive) | > 100 µM (inactive)
3 | O=C(N(C1=CCCC1)N(c1ccccc1)c1ccccc1)C(F)(F)F | 25.4 µM (inactive) | 20.2 µM (inactive) | 28.8 µM (inactive) | 23.9 µM (inactive) | 21.4 | 10.5 µM (inactive) | 27 µM (inactive) | 29.9 µM (inactive) | 17.3 µM (inactive) | 40.1 µM (inactive) | 25.8 µM (inactive) | 14 µM (inactive) | 21.5 µM (inactive) | 19.5 µM (inactive) | 20.2 µM (inactive) | 19.7 µM (inactive) | 17 µM (inactive) | 16.3 µM (inactive) | 10.4 µM (inactive)
4 | CCN(CC)CCC(=O)OC1C(C)=CC(C)C(=O)CC(C(C)CC2CCC(O)C(OC)C2)OC(=O)C2CCCCN2C(=O)C(=O)[C@@]2(O)OC(CCC2C)CC(OC)\C(C)=C/C=C/C=C/C(C)CC(C)C(=O)C1OC (some centres undefined) | < 0.01 µM (active) | 11.6 µM (inactive) | 11.3 µM (inactive) | 8.61 µM (inactive) | 1.75 | < 0.01 µM (active) | 10.3 µM (inactive) |  | 1.05 µM (active) | < 0.01 µM (active) |  |  | 5.89 µM (inactive) | < 0.0183 µM (active) | < 0.01 µM (active) | 12.9 µM (inactive) | < 0.01 µM (active) |  | 12.2 µM (inactive)
5 | N#Cc1c(-c2ccccc2)c(C#N)c(=O)n(NS(=O)(=O)c2ccccc2)c1O | > 100 µM (inactive) | > 100 µM (inactive) | > 100 µM (inactive) | > 100 µM (inactive) | > 100 | > 100 µM (inactive) | > 100 µM (inactive) | > 100 µM (inactive) | > 100 µM (inactive) | > 100 µM (inactive) | > 100 µM (inactive) | > 100 µM (inactive) | > 100 µM (inactive) | > 100 µM (inactive) | > 100 µM (inactive) | > 100 µM (inactive) | > 100 µM (inactive) | > 100 µM (inactive) | > 100 µM (inactive)
6 | Cn1c(=O)c2c([nH]/c(=N/N=C/c3ccccc3C(=O)O)n2C)n(C)c1=O | > 100 µM (inactive) | > 100 µM (inactive) | > 100 µM (inactive) | > 100 µM (inactive) | > 100 | > 100 µM (inactive) | > 100 µM (inactive) | > 100 µM (inactive) | > 100 µM (inactive) | > 100 µM (inactive) | > 100 µM (inactive) | > 100 µM (inactive) | > 100 µM (inactive) | > 100 µM (inactive) | > 100 µM (inactive) | > 100 µM (inactive) | > 100 µM (inactive) | > 100 µM (inactive) | > 100 µM (inactive)
7 | O=C1NC(Nc2ccccc2)=N/C1=C\c1c(Cl)cccc1Cl | 7.18 µM (inactive) | 36.1 µM (inactive) | 23.6 µM (inactive) | 19.8 µM (inactive) | 49.8 | 11.9 µM (inactive) | 29 µM (inactive) | 19.1 µM (inactive) | 37.5 µM (inactive) | 21.6 µM (inactive) | 21.6 µM (inactive) | 20.7 µM (inactive) | 27.4 µM (inactive) | 21 µM (inactive) | 22.1 µM (inactive) | 16.7 µM (inactive) | 17.8 µM (inactive) | 16.3 µM (inactive) | 53.3 µM (inactive)
8 | COC(=O)c1cccc(OC)c1C#Cc1c(OC)cccc1OC | 54.1 µM (inactive) | > 100 µM (inactive) | > 100 µM (inactive) | 53.2 µM (inactive) | > 100 | > 100 µM (inactive) | > 100 µM (inactive) | > 100 µM (inactive) | > 100 µM (inactive) | > 100 µM (inactive) | > 100 µM (inactive) | > 100 µM (inactive) | > 100 µM (inactive) | > 100 µM (inactive) | > 100 µM (inactive) | > 100 µM (inactive) | > 100 µM (inactive) | > 100 µM (inactive) | 0.47 µM (active)
9 | Cc1nc2sc3ccccc3n2c(=O)c1/N=N/c1ccc(Cl)cc1 | > 100 µM (inactive) | > 100 µM (inactive) | > 100 µM (inactive) | > 100 µM (inactive) | > 100 | > 100 µM (inactive) | > 100 µM (inactive) | > 100 µM (inactive) | > 100 µM (inactive) | > 100 µM (inactive) | > 100 µM (inactive) | > 100 µM (inactive) | > 100 µM (inactive) | > 100 µM (inactive) | > 100 µM (inactive) | > 100 µM (inactive) | > 100 µM (inactive) | > 100 µM (inactive) | > 100 µM (inactive)
10 | CC1(C)C(c2ccccc2)=[N+]([O-])C(C)(C)N1O | > 10 µM (inactive) | > 10 µM (inactive) | > 10 µM (inactive) | > 10 µM (inactive) | > 10 | > 10 µM (inactive) | > 10 µM (inactive) | > 10 µM (inactive) | > 10 µM (inactive) | > 10 µM (inactive) | > 10 µM (inactive) | > 10 µM (inactive) | > 10 µM (inactive) |  | > 10 µM (inactive) | > 10 µM (inactive) | > 10 µM (inactive) | > 10 µM (inactive) | > 10 µM (inactive)
11 | Cc1cc2nc(-c3cc(C(C)(C)C)c(O)c(C(C)(C)C)c3)[nH]c2cc1C | 1.54 µM (inactive) | 1.65 µM (inactive) | > 68.7 µM (inactive) | 3.49 µM (inactive) | 6.55 | > 100 µM (inactive) | > 100 µM (inactive) | 12.7 µM (inactive) |  | > 100 µM (inactive) | 0.979 µM (active) | 1.82 µM (inactive) | 1.79 µM (inactive) | 3.18 µM (inactive) | 28.1 µM (inactive) | > 100 µM (inactive) | > 100 µM (inactive) | > 71 µM (inactive) | > 100 µM (inactive)
12 | COC(=O)/C(=N\N)C(C(=O)C(=O)Nc1cccc([N+](=O)[O-])c1)c1nc2ccc(C(=O)c3ccccc3)cc2nc1O (centres undefined) | 40.2 µM (inactive) | > 100 µM (inactive) | > 100 µM (inactive) | > 100 µM (inactive) | > 100 | 35.7 µM (inactive) | > 100 µM (inactive) | > 100 µM (inactive) | > 100 µM (inactive) | 93.8 µM (inactive) | 96.2 µM (inactive) | 15 µM (inactive) | > 100 µM (inactive) |  | > 100 µM (inactive) | > 100 µM (inactive) | 16.9 µM (inactive) | 71 µM (inactive) | 72.1 µM (inactive)
13 | C=C(Br)C(Cl)(CBr)CCC(Br)C(C)(C)Cl (centres undefined) | > 10 µM (inactive) | > 10 µM (inactive) | > 10 µM (inactive) | > 10 µM (inactive) |  | > 10 µM (inactive) | > 10 µM (inactive) | > 10 µM (inactive) | > 10 µM (inactive) | > 10 µM (inactive) | > 10 µM (inactive) | > 10 µM (inactive) | > 10 µM (inactive) | > 10 µM (inactive) | > 10 µM (inactive) | > 10 µM (inactive) | > 10 µM (inactive) | > 10 µM (inactive) | > 10 µM (inactive)
14 | O=C1/C(=C/c2ccccc2O)N=C(c2ccccc2)N1C1Nc2cc3c(cc2S1)NC(N1C(=O)/C(=C/c2ccccc2O)N=C1c1ccccc1)S3 (centres undefined) | 60.5 µM (inactive) | 36.3 µM (inactive) | 10.5 µM (inactive) | 14 µM (inactive) | 13.5 | 0.489 µM (active) | > 100 µM (inactive) | 30.7 µM (inactive) | 21.7 µM (inactive) | 35.8 µM (inactive) |  | 35.5 µM (inactive) | 27.3 µM (inactive) | 29.9 µM (inactive) | 36.1 µM (inactive) | > 100 µM (inactive) | 23.7 µM (inactive) | 29.7 µM (inactive) | 35.2 µM (inactive)
15 | C=CCCCN(C(=O)c1ccccc1)c1ccc(C(=O)OC)o1 | > 100 µM (inactive) |  | 52.5 µM (inactive) | 51.9 µM (inactive) | > 100 | > 100 µM (inactive) | > 100 µM (inactive) | > 100 µM (inactive) | > 100 µM (inactive) | > 100 µM (inactive) | > 100 µM (inactive) | 91.4 µM (inactive) | 78 µM (inactive) |  | > 100 µM (inactive) | > 100 µM (inactive) | > 100 µM (inactive) | 31 µM (inactive) | 64.3 µM (inactive)
